Test results from patent US7592359B2, “Substituted azabicyclo hexane derivatives as muscarinic receptor antagonists” (Ranbaxy Laboratories Limited, priority 2003, dated 2009).

Legend:
M3 muscarinic receptor = target: T1, M3 muscarinic receptor (Rattus norvegicus, UniProt P08483); assay: Radioligand binding assay, [3H]-N-methylscopolamine, rat submandibular gland membranes; details: [3H]-NMS binding, read-out: Receptor Binding Assay pKi M3 (converted)
T1 construct: Submandibular glands and heart were isolated and placed in ice cold homogenising buffer; from tissue; host or cells: rat submandibular gland membrane homogenate
Method: (§1) Membrane preparation: Submandibular glands and heart were isolated and placed in ice cold homogenising buffer (HEPES 20 mM, 10 mM EDTA, pH 7.4) immediately after sacrifice. The tissues were homogenised in 10 volumes of homogenising buffer and the homogenate was filtered through two layers of wet gauze and filtrate was centrifuged at 500 g for 10 min. The supernatant was subsequently centrifuged at 40,000 g for 20 min. The pellet thus obtained was resuspended in same volume of assay buffer (HEPES 20 mM, EDTA 5 mM, pH 7.4) and were stored at −70° C. until the time of assay.
(§2) Ligand binding assay The compounds were dissolved and diluted in DMSO. The membrane homogenates (150-250 μg protein) were incubated in 250 μl of assay buffer (HEPES 20 mM, pH 7.4) at 24-25° C. for 3 hours. Non-specific binding was determined in the presence of 1 μM atropine. The incubation was terminated by vacuum filtration over GF/B fiber filters (Wallac). The filters were then washed with ice cold 50 mM Tris HCl buffer (pH 7.4). The filter mats were dried and bound radioactivity retained on filters was counted. The IC50 & Kd were estimated by using the non-linear curve fitting program using G Pad Prism software.

M2 muscarinic receptor = target: T2, M2 muscarinic receptor (Rattus norvegicus, UniProt P10980); assay: Radioligand binding assay, [3H]-N-methylscopolamine, rat heart membranes; details: [3H]-NMS binding, read-out: Receptor Binding Assay pKi M2 (converted)
T2 construct: Submandibular glands and heart were isolated and placed in ice cold homogenising buffer; from tissue; host or cells: rat heart membrane homogenate
T2 sequence (P10980 1-466): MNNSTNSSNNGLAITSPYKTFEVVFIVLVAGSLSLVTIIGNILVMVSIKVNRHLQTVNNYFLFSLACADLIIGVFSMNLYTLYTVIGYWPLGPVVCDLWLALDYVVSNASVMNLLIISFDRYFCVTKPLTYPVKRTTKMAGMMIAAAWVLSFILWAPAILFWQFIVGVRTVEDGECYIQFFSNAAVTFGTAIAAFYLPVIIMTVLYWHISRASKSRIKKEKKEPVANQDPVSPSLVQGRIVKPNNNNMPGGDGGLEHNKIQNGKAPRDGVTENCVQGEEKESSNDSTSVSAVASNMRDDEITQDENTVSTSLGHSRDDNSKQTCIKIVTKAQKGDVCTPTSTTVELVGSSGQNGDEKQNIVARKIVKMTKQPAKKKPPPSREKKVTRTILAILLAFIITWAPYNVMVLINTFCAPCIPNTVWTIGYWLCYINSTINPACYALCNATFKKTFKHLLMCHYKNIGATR
Method: as §1, §2

T1 sequence (P08483 whole entry): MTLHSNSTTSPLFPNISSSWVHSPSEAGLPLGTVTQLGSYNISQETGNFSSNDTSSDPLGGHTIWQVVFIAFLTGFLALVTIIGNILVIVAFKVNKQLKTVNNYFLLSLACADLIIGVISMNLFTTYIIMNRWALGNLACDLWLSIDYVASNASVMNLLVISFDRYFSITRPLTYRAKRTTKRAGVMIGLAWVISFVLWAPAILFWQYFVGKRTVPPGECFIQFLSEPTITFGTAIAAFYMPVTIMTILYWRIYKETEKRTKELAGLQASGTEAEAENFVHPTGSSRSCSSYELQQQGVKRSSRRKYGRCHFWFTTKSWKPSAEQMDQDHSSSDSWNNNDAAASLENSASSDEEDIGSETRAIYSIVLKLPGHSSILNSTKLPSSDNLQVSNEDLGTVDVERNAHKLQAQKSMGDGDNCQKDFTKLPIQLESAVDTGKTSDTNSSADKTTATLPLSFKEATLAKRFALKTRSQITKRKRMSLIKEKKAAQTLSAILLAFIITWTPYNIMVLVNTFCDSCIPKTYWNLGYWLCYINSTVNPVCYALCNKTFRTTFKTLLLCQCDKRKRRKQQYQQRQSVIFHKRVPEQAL

Ki (M3 muscarinic receptor): 7.94 µM
Ki (M2 muscarinic receptor): 15.8 µM
Compound: O=C(NC12CC1CN(Cc1ccccc1)C2)C(CO)c1ccccc1 (stereo not drawn) [Compound No. 4, (1α,5α)-N-[3-benzyl-3-azabicyclo[3.1.0]hex-1-yl]-2-hydroxymethyl-2-phenylacetamide]
